Measured values published in US10112950B2, “Substituted imidazo[1,2-a]pyrazines as LSD1 inhibitors” (Incyte Corporation, priority 2014, dated 2018).

Molecular target: LSD-1 enzyme (Homo sapiens (Human), UniProt O60341)
Test: LANCE LSD1/KDM1A demethylase assay (LSD1 histone demethylase biochemical assay)
Settings: 1 nM LSD-1 enzyme, 1 hour preincubation at 25° C., 0.4 μM Biotin-labeled Histone H3 peptide substrate
Experimental: LSD1 Histone Demethylase Biochemical Assay
LANCE LSD1/KDM1A demethylase assay-10 μL of 1 nM LSD-1 enzyme (ENZO BML-SE544-0050) in the assay buffer (50 mM Tris, pH 7.5, 0.01% Tween-20, 25 mM NaCl, 5 mM DTT) were preincubated for 1 hour at 25° C. with 0.8 μL compound/DMSO dotted in black 384 well polystyrene plates. […] Reactions were stopped by addition of 10 μL 1× LANCE Detection Buffer (PerkinElmer CR97-100) supplemented with 1.5 nM Eu-anti-unmodified H3K4 Antibody (PerkinElmer TRF0404), and 225 nM LANCE Ultra Streptavidin (PerkinElmer TRF102) along with 0.9 mM Tranylcypromine-HCl (Millipore 616431). After stopping the reactions plates were incubated for 30 minutes and read on a PHERAstar FS plate reader (BMG Labtech).

Row | SMILES | IC50
1 | CN(C)C1CCN(c2nc(-c3ccc(C#N)cc3)c(-c3ccc4c(c3)CC(O)C4)n3ccnc23)CC1 (racemic) [Example 93, 4-[8-[4-(dimethylamino)piperidin-1-yl]-5-(2-hydroxy-2,3-dihydro-1H-inden-5-yl)imidazo[1,2-a]pyrazin-6-yl]benzonitrile] | ≤ 50 nM
2 | CN(C)C1CCN(c2nc(-c3ccc(C#N)cc3)c(-c3ccc4c(c3)C(O)CC4)n3ccnc23)CC1 (racemic) [Example 95, 4-[8-[4-(dimethylamino)piperidin-1-yl]-5-(3-hydroxy-2,3-dihydro-1H-inden-5-yl)imidazo[1,2-a]pyrazin-6-yl]benzonitrile] | ≤ 50 nM
3 | Cc1ccc(-c2c(-c3ccc(C#N)cc3)nc(OC[C@@H]3CCNC3)c3nccn23)cc1 [Example 1, 4-{5-(4-methylphenyl)-8-[(3R)-pyrrolidin-3-ylmethoxy]imidazo[1,2-a]pyrazin-6-yl}benzonitrile] | ≤ 50 nM
4 | Cc1ccc(-c2c(-c3ccc(C#N)cc3)nc(CCC3CCNC3)c3nccn23)cc1 (stereo not shown) [Example 2, 4-[5-(4-methylphenyl)-8-(2-pyrrolidin-3-ylethyl)imidazo[1,2-a]pyrazin-6-yl]benzonitrile] | ≤ 50 nM
5 | Cc1ccc(-c2c(-c3ccc(C#N)cc3)nc(CN3CC[C@H](N(C)C)C3)c3nccn23)cc1 [Example 4, 4-[8-{[(3S)-3-(dimethylamino)pyrrolidin-1-yl]methyl}-5-(4-methylphenyl)imidazo[1,2-a]pyrazin-6-yl]benzonitrile] | ≤ 50 nM
6 | Cc1ccc(-c2c(-c3ccc(C#N)cc3)nc(CN3CC[C@@H](N(C)C)C3)c3nccn23)cc1 [Example 5, 4-[8-{[(3R)-3-(dimethylamino)pyrrolidin-1-yl]methyl}-5-(4-methylphenyl)imidazo[1,2-a]pyrazin-6-yl]benzonitrile] | ≤ 50 nM
7 | Cc1ccc(-c2c(-c3ccc(C#N)cc3)nc(OC3CCN(C)C3)c3nccn23)cc1 (stereo not shown) [Example 7, 4-{5-(4-methylphenyl)-8-[(1-methylpyrrolidin-3-yl)oxy]imidazo[1,2-a]pyrazin-6-yl}benzonitrile] | ≤ 50 nM
8 | Cc1ccc(-c2c(-c3ccc(C#N)cc3)nc(OC[C@@H]3CCCNC3)c3nccn23)cc1 [Example 9, 4-{5-(4-methylphenyl)-8-[(3R)-piperidin-3-ylmethoxy]imidazo[1,2-a]pyrazin-6-yl}benzonitrile] | ≤ 50 nM
9 | Cc1ccc(-c2c(-c3ccc(C#N)cc3)nc(OC[C@H]3CCCNC3)c3nccn23)cc1 [Example 10, 4-{5-(4-methylphenyl)-8-[(3S)-piperidin-3-ylmethoxy]imidazol[1,2-a]pyrazin-6-yl}benzonitrile] | ≤ 50 nM
10 | Cc1ccc(-c2c(-c3ccc(C#N)cc3)nc(OC[C@@H]3CCN(C)C3)c3nccn23)cc1 [Example 11, 4-(5-(4-methylphenyl)-8-{[(3R)-1-methylpyrrolidin-3-yl]methoxy}imidazo[1,2-a]pyrazin-6-yl)benzonitrile] | ≤ 50 nM
11 | Cc1ccc(-c2c(-c3ccc(C#N)cc3)nc(OC[C@@H]3CCCN(C)C3)c3nccn23)cc1 [Example 12, 4-(5-(4-methylphenyl)-8-{[(3R)-1-methylpiperidin-3-yl]methoxy}imidazo[1,2-a]pyrazin-6-yl)benzonitrile] | ≤ 50 nM
12 | Cc1ccc(-c2c(-c3ccc(C#N)cc3)nc(SC[C@@H]3CCNC3)c3nccn23)cc1 [Example 13, 4-(5-(4-methylphenyl)-8-{[(3R)-pyrrolidin-3-ylmethyl]thio}imidazo[1,2-a]pyrazin-6-yl)benzonitrile] | ≤ 50 nM
13 | Cc1ccc(-c2c(-c3ccc(C#N)cc3)nc(N3CCC(N(C)C)CC3)c3nccn23)cc1 [Example 14, 4-[8-[4-(dimethylamino)piperidin-1-yl]-5-(4-methylphenyl)imidazo[1,2-a]pyrazin-6-yl]benzonitrile] | ≤ 50 nM
14 | Cc1ccc(-c2c(-c3ccc(C#N)cc3)nc(N3CCCN(C)CC3)c3nccn23)cc1 [Example 18, 4-[8-(4-methyl-1,4-diazepan-1-yl)-5-(4-methylphenyl)imidazo[1,2-a]pyrazin-6-yl]benzonitrile] | ≤ 50 nM
15 | Cc1ccc(-c2c(-c3ccc(C#N)cc3)nc(N3CCC4(CCNC4)C3)c3nccn23)cc1 (stereo not shown) [Example 19, 4-[8-(2,7-diazaspiro[4.4]non-2-yl)-5-(4-methylphenyl)imidazo[1,2-a]pyrazin-6-yl]benzonitrile] | ≤ 50 nM
16 | Cc1ccc(-c2c(-c3ccc(C#N)cc3)nc(N3CCC4(CC3)CNC4)c3nccn23)cc1 [Example 20, 4-[8-(2,7-diazaspiro[3.5]non-7-yl)-5-(4-methylphenyl)imidazo[1,2-a]pyrazin-6-yl]benzonitrile] | ≤ 50 nM
17 | N#Cc1ccc(-c2nc(OC[C@@H]3CCNC3)c3nccn3c2-c2ccc(N3CCCCC3)cc2)cc1 [Example 29, 4-{5-(4-piperidin-1-ylphenyl)-8-[(3R)-pyrrolidin-3-ylmethoxy]imidazo[1,2-a]pyrazin-6-yl}benzonitrile] | ≤ 50 nM
18 | COc1ccc(-c2c(-c3ccc(C#N)cc3)nc(OC[C@@H]3CCNC3)c3nccn23)cc1 [Example 30, 4-{5-(4-methoxyphenyl)-8-[(3R)-pyrrolidin-3-ylmethoxy]imidazol[1,2-a]pyrazin-6-yl}benzonitrile] | ≤ 50 nM
19 | Cc1ccc(-c2c(-c3ccc(C#N)cc3)nc(OC[C@@H]3CCNC3)c3nc(C)cn23)cc1 [Example 33, 4-{2-methyl-5-(4-methylphenyl)-8-[(3R)-pyrrolidin-3-ylmethoxy]imidazo[1,2-a]pyrazin-6-yl}benzonitrile] | ≤ 50 nM
20 | Cc1ccc(-c2c(-c3ccc(C#N)cc3)nc(OC[C@@H]3CCNC3)c3nc(CC#N)cn23)cc1 [Example 36, 4-{2-(cyanomethyl)-5-(4-methylphenyl)-8-[(3R)-pyrrolidin-3-ylmethoxy]imidazol[1,2-a]pyrazin-6-yl}benzonitrile] | ≤ 50 nM
21 | CNC(=O)c1cn2c(-c3ccc(C)cc3)c(-c3ccc(C#N)cc3)nc(OC[C@@H]3CCNC3)c2n1 [Example 37, 6-(4-cyanophenyl)-N-methyl-5-(4-methylphenyl)-8-[(3R)-pyrrolidin-3-ylmethoxy]imidazol-[1,2-a]pyrazine-2-carboxamide] | ≤ 50 nM
22 | Cc1ccc(-c2c(-c3ccc(C#N)cc3)nc(OC[C@@H]3CCNC3)c3nc(C(=O)N(C)C)cn23)cc1 [Example 38, 6-(4-cyanophenyl)-N,N-dimethyl-5-(4-methylphenyl)-8-[(3R)-pyrrolidin-3-ylmethoxy]imidazo[1,2-a]pyrazine-2-carboxamide] | ≤ 50 nM
23 | Cc1ccc(-c2c(-c3ccc(C#N)cc3)nc(OC[C@@H]3CCNC3)c3nc(C(=O)NC4CC4)cn23)cc1 [Example 39, 6-(4-cyanophenyl)-N-cyclopropyl-5-(4-methylphenyl)-8-[(3R)-pyrrolidin-3-ylmethoxy]imidazol[1,2-a]pyrazine-2-carboxamide] | ≤ 50 nM
24 | Cc1ccc(-c2c(-c3ccc(C#N)cc3)nc(OC[C@@H]3CCNC3)c3nc(C(=O)NC4CN(C)C4)cn23)cc1 [Example 40, 6-(4-cyanophenyl)-N-(1-methylazetidin-3-yl)-5-(4-methylphenyl)-8-[(3R)-pyrrolidin-3-ylmethoxy]imidazol[1,2-a]pyrazine-2-carboxamide] | ≤ 50 nM
25 | Cc1ccc(-c2c(-c3ccc(C#N)cc3)nc(OC[C@@H]3CCNC3)c3nc(CO)cn23)cc1 [Example 41, 4-{2-(hydroxymethyl)-5-(4-methylphenyl)-8-[(3R)-pyrrolidin-3-ylmethoxy]imidazol[1,2-a]pyrazin-6-yl}benzonitrile] | ≤ 50 nM
